From PMC9019904, “AD Informer Set: Chemical tools to facilitate Alzheimer's disease drug discovery” (Alzheimer's & Dementia : Translational Research & Clinical …, 2022)
Where a SMILES comes first, the peptide text is derived from it. [ ]: non-standard residue; d: D form. The star is where a group is joined. ξ: configuration not given here. ξF = NC(Cc1ccccc1)C(=O)O; Cbz = O=C(OCc1ccccc1)*

How the values were obtained:
[1] = tested on: HMC3 (human microglia) cell line; experiment: pHrodo-myelin phagocytosis/cell viability high content imaging assay: viability (cell count, nuclear area, nuclear intensity); conditions: 48 hours treatment
Summary of the method: (§1)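 BV2 mouse and HMC3 human microglia were treated with compounds at 10 μM for 48 h, with pHrodo-myelin present for the last 20 h. Viability was imaged as total cell count per well and mean nuclear intensity per cell. Values are means of duplicates, normalized to untreated wells as % control.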

[2] = tested on: BV2 (mouse microglia) cell line; experiment: as above; conditions: 48 hours treatment
Summary of the method: as §1

[3] = tested on: HMC3 (human microglia) cell line; experiment: pHrodo-myelin phagocytosis/cell viability high content imaging assay: phagocytosis signal; assay type: cell-based
Summary of the method: (§2)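 Phagocytosis and cell viability were measured together by high content imaging about 22 hours after pHrodo-myelin addition. Three measurements were extracted from the images. Intensity increase and decrease were taken as early and later apoptosis, respectively.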

[4] = tested on: BV2 (mouse microglia) cell line; experiment: as above; assay type: cell-based
Summary of the method: as §2

[5] = HMC3 cells, 10 uM compound, 48 hours treatment, pHrodo-myelin final 20 hours
[6] = BV2 cells, 10 uM compound, 48 hours treatment, pHrodo-myelin final 20 hours
[7] = HMC3, compound 10 uM, pHrodo-myelin
[8] = BV2, compound 10 uM, pHrodo-myelin

Row | SMILES | 1. Cell count (% control) ([1]; HMC3 cells, 10 uM compound) | 2. Nuclear Area (% Control) ([1]; HMC3 cells, 10 uM compound) | 3. Nuclear DNA Intensity (% control) ([1]; HMC3 cells, 10 uM compound) | 1. Cell count (% control) ([2]; BV2 cells, 10 uM compound) | 2. Nuclear Area (% Control) ([2]; BV2 cells, 10 uM compound) | 3. Nuclear DNA Intensity (% control) ([2]; BV2 cells, 10 uM compound) | 4. Phagocytosis (% control) [3, 5] | 4. Phagocytosis (% control) [4, 6] | 1. Cell count (% control) ([1]; HMC3, compound 10 uM) | 2. Nuclear Area (% Control) ([1]; HMC3, compound 10 uM) | 3. Nuclear DNA Intensity (% control) ([1]; HMC3, compound 10 uM) | 1. Cell count (% control) ([2]; BV2, compound 10 uM) | 2. Nuclear Area (% Control) ([2]; BV2, compound 10 uM) | 3. Nuclear DNA Intensity (% control) ([2]; BV2, compound 10 uM) | 4. Phagocytosis (% control) [3, 7] | 4. Phagocytosis (% control) [4, 8]
1 | CCOC(=O)N1c2ccc(C(F)(F)F)cc2[C@@H](N(Cc2cc(C(F)(F)F)cc(C(F)(F)F)c2)C(=O)OC)C[C@H]1CC [UNC10302851A] | 125.3 % control | 99.8 % Control | 94.2 % control | 124.9 % control | 104.2 % Control | 100.1 % control | 85.4 % control | 135.7 % control | – | – | – | – | – | – | – | –
2 | Cc1cc(C)nc(NC(=S)N2CCN(Cc3ccc(C(F)(F)F)cc3)CC2)c1 [UNC10302844A] | 133.1 % control | 97.8 % Control | 105.3 % control | 129.8 % control | 107.6 % Control | 103.9 % control | 108.4 % control | 180.4 % control | – | – | – | – | – | – | – | –
3 | CN(C)CCCN1c2ccccc2Sc2ccc(Cl)cc21.Cl [UNC10100309D] | 119.8 % control | 102.8 % Control | 91.9 % control | 82.7 % control | 103.4 % Control | 99.3 % control | 88.5 % control | 128.7 % control | – | – | – | – | – | – | – | –
4 | Cc1cc(Nc2nc(N[C@@H](C)c3ncc(F)cn3)ncc2Cl)n[nH]1 [UNC10302859A] | – | – | – | – | – | – | – | – | 84.7 % control | 121.3 % Control | 92.5 % control | 53.2 % control | 109.7 % Control | 105.5 % control | 95.5 % control | 153.2 % control
5 | COc1ccc(CCN2CCN(CCCc3ccccc3)CC2)cc1OC.Cl.Cl [UNC10302848A] | 84.9 % control | 99.2 % Control | 95.9 % control | 91.1 % control | 105.5 % Control | 98.2 % control | 82.7 % control | 120.8 % control | – | – | – | – | – | – | – | –
6 | O=c1oc2ccccc2cc1-c1cn2cc(Cc3ccc(F)cc3)sc2n1 [UNC10302680A] | 107.8 % control | 96.3 % Control | 103.3 % control | 59.2 % control | 99.6 % Control | 132.0 % control | 72.6 % control | 114.2 % control | – | – | – | – | – | – | – | –
7 | O=C(NC1CCNCC1)c1[nH]ncc1NC(=O)c1c(Cl)cccc1Cl [UNC10302839A] | – | – | – | – | – | – | – | – | 70.4 % control | 131.0 % Control | 97.4 % control | 4.8 % control | 121.7 % Control | 82.5 % control | 183.7 % control | 18.2 % control
8 | Cc1cnc(Nc2ccc(F)cc2Cl)nc1-c1c[nH]c(C(=O)N[C@H](CO)c2cccc(Cl)c2)c1 [UNC10302866A] | 106.8 % control | 98.0 % Control | 96.6 % control | 83.7 % control | 101.5 % Control | 113.9 % control | 72.8 % control | 108.3 % control | – | – | – | – | – | – | – | –
9 | C[C@H]1Oc2cc(cnc2N)-c2c(nn(C)c2C#N)CN(C)C(=O)c2ccc(F)cc21 [UNC10244898A] | 127.2 % control | 110.3 % Control | 89.2 % control | 117.2 % control | 102.7 % Control | 110.1 % control | 37.8 % control | 200.3 % control | – | – | – | – | – | – | – | –
10 | CCS(=O)(=O)N1CCN(c2ccc(Nc3ncc(C(N)=O)c(NC4CC4)n3)cc2)CC1 [UNC10245084A] | – | – | – | – | – | – | – | – | 54.5 % control | 136.2 % Control | 128.1 % control | 6.9 % control | 115.7 % Control | 50.0 % control | 110.4 % control | 2.3 % control
11 | CC/C(=C(\c1ccccc1)c1ccc(OCCN(C)C)cc1)c1ccccc1 [UNC10101258B] | – | – | – | – | – | – | – | – | – | 95.6 % Control | 91.8 % control | 72.9 % control | 98.7 % Control | 95.7 % control | 72.6 % control | 320.1 % control
12 | Cc1ccccc1C(=O)Nc1ccc(C(=O)N2CCCC(O)c3cc(Cl)ccc32)c(C)c1 (stereo not shown) [UNC10302860A] | – | – | – | – | – | – | – | – | 130.2 % control | 105.3 % Control | 93.3 % control | 118.5 % control | 108.9 % Control | 107.5 % control | 100.1 % control | 197.1 % control
13 | CCc1cnn2c(NCc3ccc[n+]([O-])c3)cc(N3CCCC[C@H]3CCO)nc12 [UNC10302845A] | – | – | – | – | – | – | – | – | 51.6 % control | 136.2 % Control | 97.0 % control | 16.3 % control | 103.8 % Control | 20.9 % control | 167.0 % control | 3.5 % control
14 | CC(C)[C@H](NC(=O)OCc1ccccc1)C(=O)NC(C=O)Cc1ccccc1 (stereo partly drawn) [UNC10302675A] (Cbz-Val-[ξF]-aldehyde) | 109.7 % control | 102.5 % Control | 106.2 % control | 117.2 % control | 102.4 % Control | 114.8 % control | 106.9 % control | 144.5 % control | – | – | – | – | – | – | – | –
15 | CCn1cc(C(=O)O)c(=O)c2c(N)c(F)c(NC3CCCCC3)cc21 [UNC10302843A] | – | – | – | – | – | – | – | – | 0.0 % control | 0.0 % Control | 0.0 % control | 99.6 % control | 97.0 % Control | 118.4 % control | 67.4 % control | 121.2 % control
16 | Cc1cc2c(cc1C(=O)c1ccc(C(=O)O)cc1)C(C)(C)CCC2(C)C [UNC10302892A] | 88.9 % control | 102.9 % Control | 97.5 % control | 95.3 % control | 107.4 % Control | 95.0 % control | 75.7 % control | 90.2 % control | – | – | – | – | – | – | – | –
